The values below come from patent US12337024B2, “Larazotide formulations” (Interlude Biopharma Co., priority 2019, dated 2025).

In one assay the test system is tight junction. The assay is described as follows: Activity as tight junction regulators.
A further assay deals with mice on the Western diet. How it is done: 77 DIAMOND™ mice were placed on either normal chow (NDNW) or Western Diet (WDSW) and aged up to 8, 20, 28, 36, and 40 weeks, then dosed with 4 kDa FITC-dextran at 600 mg/kg body weight by gavage. Four hours after the dosing, at least 20 μL of serum was taken by tail vein nick. A competition ELISA, which measures small dextran polymers (conjugated or unconjugated), was used to quantify serum dextran concentration.
The subsequent experiment evaluated the effects of orally administered larazotide acetate to mice on the Western diet. The study design is depicted in FIG. 2. Specifically, 8 groups of mice were placed on WDSW diets for 16 weeks and administered larazotide (dosed in drinking water or oral gavage), pioglitazone comparator, or vehicle from 8-16 weeks. Improvement in leaky gut was assessed by dosing the mice with unconjugated dextran at 600 mg/kg via oral gavage at baseline and end of study, serum was collected 4 hours later, and serum dextran concentrations were measured.

The next assay relates to celiac disease symptoms. As to conditions: clinical trials, cited from earlier work.

Like-named read-outs stand apart in the source and are kept apart here. Ends that are not written are not given here.

With “GVLVQPG (Synthetic polymer) [larazotide-derived fragment missing N-terminal glycine residue]”, the “activity as tight junction regulators” value in the assay with tight junction was “inactive”. Turning to “VLVQPG (Synthetic polymer) [larazotide-derived fragment missing N-terminal glycine residues]”, in the assay with tight junction, the “activity as tight junction regulators” value is “inactive”. As for GGVLVQPG [larazotide], the gut integrity result in the assay on mice on the Western diet (mice on Western diet, larazotide from 8-16 weeks, drinking water or oral gavage, FIG. 3) was “improved gut integrity”. For the same substance, in the assay with tight junction (full length larazotide mixed with fragments GVLVQPG and VLVQPG), the “activity as tight junction regulator when mixed with fragments” value is given as “activity is completely abolished”. The “reduction of celiac disease symptoms” value in the assay on celiac disease symptoms (higher doses (e.g., 1 mg and 2 mg doses)) is listed as “attenuation of activity, or no activity at all”; with celiac disease symptoms (lower doses (e.g., 0.5 mg dose)), “benefit at reducing celiac disease symptoms”. Regarding larazotide acetate, the serum dextran concentrations result in the assay with mice on the Western diet (mice on Western diets, various doses, serum 4 hours after dextran 600 mg/kg gavage) is on record as “successful in lowering the serum dextran concentrations”.
